Tests used:
Assay in all cases: relative viability (nuclei count vs DMSO), 5 days (fraction); higher = more cells survive
TGX 221 + AZD7762 = compound: CC1=CN2C(=O)C=C(N=C2C(=C1)C(C)NC3=CC=CC=C3)N4CCOCC4 [TGX 221] + NC(=O)Nc1cc(-c2cccc(F)c2)sc1C(=O)N[C@H]1CCCNC1 [AZD7762] (partner 0.2 µM)
Method in brief: (§1)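 Relative viability divides the nuclei count in treated wells by that in vehicle wells. Lung cancer cell lines were seeded in 1536-well plates, dosed by pin tool the next day, and fixed and stained after 5 days in one step with final 0.05% Triton X-100, 1% formaldehyde and 1 ug/ml Hoechst. Dosing was a single drug or a fixed anchor-drug dose plus five library-drug doses (not always all listed) in √10 steps, and values are medians of duplicate plates imaged at 4×.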

[1] = compound: C1=CC=C(C(=C1)C2=CC=C(C=C2)C3=CSC4=C3C(=C(C(=O)N4)C#N)O)O + Cc1nc(Nc2ncc(C(=O)Nc3c(C)cccc3Cl)s2)cc(N2CCN(CCO)CC2)n1 [Dasatinib] (partner 0.075 µM)
Method in brief: as §1

[2] = compound: C1=CC=C(C(=C1)C2=CC=C(C=C2)C3=CSC4=C3C(=C(C(=O)N4)C#N)O)O + NC(=O)Nc1cc(-c2cccc(F)c2)sc1C(=O)N[C@H]1CCCNC1 [AZD7762] (partner 0.2 µM)
Method in brief: as §1

Ricolinostat + Olaparib = compound: O=C(CCCCCCNC(=O)c1cnc(N(c2ccccc2)c2ccccc2)nc1)NO [Ricolinostat] + O=C(c1cc(Cc2n[nH]c(=O)c3ccccc23)ccc1F)N1CCN(C(=O)C2CC2)CC1 [Olaparib] (partner 8 µM)
Method in brief: as §1

Row | Cell Line | relative viability (TGX 221 + AZD7762; first compound 0.08 µM) | relative viability (TGX 221 + AZD7762; first compound 0.253 µM) | relative viability (TGX 221 + AZD7762; first compound 0.8 µM) | relative viability (TGX 221 + AZD7762; first compound 2.53 µM) | relative viability (TGX 221 + AZD7762; first compound 8 µM) | relative viability ([1]; first compound 0.08 µM) | relative viability ([1]; first compound 0.253 µM) | relative viability ([1]; first compound 0.8 µM) | relative viability ([1]; first compound 2.53 µM) | relative viability ([1]; first compound 8 µM) | relative viability ([2]; first compound 0.08 µM) | relative viability ([2]; first compound 0.253 µM) | relative viability ([2]; first compound 0.8 µM) | relative viability ([2]; first compound 2.53 µM) | relative viability ([2]; first compound 8 µM) | relative viability (Ricolinostat + Olaparib; first compound 0.08 µM) | relative viability (Ricolinostat + Olaparib; first compound 0.253 µM) | relative viability (Ricolinostat + Olaparib; first compound 0.8 µM) | relative viability (Ricolinostat + Olaparib; first compound 2.53 µM)
1 | NCI-H322M | 0.578 | 0.569 | 0.636 | 0.571 | 0.546 | 0.245 | 0.244 | 0.234 | 0.243 | 0.273 | 0.599 | 0.6 | 0.522 | 0.639 | 0.64 | 0.664 | 0.879 | 0.807 | 0.907
2 | NCI-H358 | 0.497 | 0.631 | 0.462 | 0.58 | 0.515 | 0.211 | 0.2 | 0.174 | 0.139 | 0.196 | 0.486 | 0.542 | 0.532 | 0.605 | 0.488 | 0.444 | 0.57 | 0.61 | 0.652
3 | NCI-H441 | 1.22 | 1.12 | 0.925 | 1.07 | 1.24 | 0.437 | 0.626 | 0.582 | 0.636 | 0.538 | 1.02 | 1.17 | 1.33 | 1.57 | 1.02 | 0.575 | 0.471 | 0.478 | 0.455
4 | NCI-H460 | 0.564 | 0.632 | 0.559 | 0.665 | 0.655 | 0.37 | 0.406 | 0.485 | 0.577 | 0.506 | 0.579 | 0.68 | 0.604 | 0.611 | 0.585 | 0.362 | 0.341 | 0.377 | 0.159
5 | NCI-H522 | 0.771 | 0.81 | 0.888 | 0.871 | 0.904 | 0.849 | 0.761 | 0.957 | 0.829 | 0.837 | 0.802 | 0.871 | 0.869 | 0.898 | 0.772 | 0.61 | 0.651 | 0.606 | 0.676
6 | NCI-H596 | 1.05 | 0.904 | 1.11 | 0.942 | 1.03 | 0.568 | 0.678 | 0.713 | 0.557 | 0.476 | 0.862 | 1.09 | 1.21 | 1.18 | 0.986 | 0.699 | 0.676 | 0.693 | 0.526
7 | NCI-H647 | 0.324 | 0.448 | 0.407 | 0.278 | 0.328 | 0.153 | 0.189 | 0.191 | 0.183 | 0.1 | 0.294 | 0.337 | 0.276 | 0.39 | 0.301 | 0.446 | 0.521 | 0.465 | 0.261
8 | NCI-H650 | 0.769 | 0.902 | 0.926 | 1.12 | 0.904 | 0.45 | 0.449 | 0.428 | 0.474 | 0.428 | 0.911 | 1.04 | 1.17 | 1.02 | 0.817 | 0.376 | 0.34 | 0.278 | 0.22
9 | NCI-H727 | 0.492 | 0.688 | 0.695 | 0.592 | 0.546 | 0.507 | 0.415 | 0.483 | 0.285 | 0.419 | 0.569 | 0.541 | 0.603 | 0.543 | 0.434 | 0.827 | 0.624 | 0.75 | 0.611
10 | NCI-H838 | 0.892 | 0.911 | 0.877 | 0.77 | 0.849 | 0.251 | 0.295 | 0.317 | 0.267 | 0.269 | 0.914 | 0.923 | 1.02 | 0.875 | 0.839 | 0.802 | 0.788 | 0.787 | 0.404
11 | NCI-H1355 | 0.691 | 0.679 | 0.775 | 0.65 | 0.675 | 0.619 | 0.668 | 0.708 | 0.64 | 0.639 | 0.693 | 0.899 | 0.739 | 0.763 | 0.752 | 0.647 | 0.723 | 0.707 | 0.688
12 | NCI-H1395 | 0.398 | 0.383 | 0.385 | 0.413 | 0.39 | 0.382 | 0.368 | 0.45 | 0.381 | 0.421 |  | 0.397 | 0.395 | 0.353 | 0.419 |  | 0.44 | 0.479 | 0.433
13 | NCI-H1437 | 1.11 | 1.12 | 1.11 | 1.07 | 1.01 | 0.32 | 0.363 | 0.344 | 0.456 | 0.371 | 1.1 | 1.27 | 1.12 | 1.22 | 1.15 | 0.628 | 0.595 | 0.598 | 0.409
14 | NCI-H1651 | 0.384 | 0.468 | 0.439 | 0.414 | 0.368 | 0.386 | 0.371 | 0.436 | 0.378 | 0.26 | 0.496 | 0.454 | 0.428 | 0.479 | 0.334 | 0.194 | 0.174 | 0.184 | 0.164
15 | NCI-H1666 | 0.784 | 0.861 | 0.923 | 0.8 | 0.802 | 0.6 | 0.858 | 0.987 | 0.903 | 0.722 | 0.807 | 0.894 | 0.8 | 0.796 | 0.706 | 0.708 | 0.709 | 0.695 | 0.829
16 | NCI-H1734 | 0.526 | 0.464 | 0.499 | 0.609 | 0.496 | 0.396 | 0.474 | 0.452 | 0.489 | 0.455 | 0.573 | 0.511 | 0.559 | 0.594 | 0.459 | 0.61 | 0.642 | 0.601 | 0.324
17 | NCI-H1755 | 0.338 | 0.391 | 0.399 | 0.409 | 0.371 | 0.396 | 0.466 | 0.349 | 0.368 | 0.423 | 0.44 | 0.466 | 0.572 | 0.435 | 0.377 | 0.826 | 0.809 | 0.814 | 0.739

— the supplement of paper PMC10307832
